Here are results for 18 compounds from publication PMC4645114, “Discovery of Novel ROCK1 Inhibitors via Integrated Virtual Screening Strategy and Bioassays” (Scientific Reports, 2015).

Each structure is given as a SMILES string. Several values for one entry are separate records, joined by “and”; a condition that tells them apart may be missing. Identical values can stand only once. A value given as a limit tells only on which side of the number the result lay.

One may read the IC50 as the concentration that inhibits the measured activity by half.

The target in one series is T1, ROCK1 (Homo sapiens, UniProt Q13464).
T1 construct: 15 μl kinase reaction volume with 5 ng ROCK1 enzyme
Kind of series: Z′-LYTE kinase assay, ROCK1 enzyme activity. The format is biochemical. As to the method:
Kinase inhibition was measured by using the Z′-LYTE™ Kinase Assay Kit with Ser/Thr 7 peptide substrate (Invitrogen, cat. PV3180). Compounds were tested on three individual times with eight point dilutions performed in duplicate to determine the average IC50 values. The assay conditions were optimized to 15 μl kinase reaction volume with 5 ng ROCK1 enzyme in 50 mM HEPES (pH = 7.5), 10 mM MgCl2, 0.01% Brij-35 and 1 mM EGTA. Initially, the reaction was incubated for 1 hour at room temperature in the presence of 1.5 μM peptide substrate and 12.5 μM ATP for ROCK1. Then, 5 μL development reagent A was added and the assay plate was incubated for another 1 hour. Finally, […] stop reagent was added and the assay plate was shaken for 1 hour. The coumarin (ex. 400 nm, em. 445 nm) and fluorescein (ex. 400 nm, em. 520 nm) emission signals were measured on a fluorescence plate reader (Thermo Scientific Varioskan Flash).

Series [1] concerns phosphorylation of cofilin (ROCK pathway) in HUVEC. Kind of series: Western blotting of cofilin phosphorylation in HUVEC. The format is cell-based, Human. The settings on record: compared with the control group. On the procedure: Human umbilical vein endothelial cells (HUVEC, ATCC, Manassas, USA) were cultured and maintained in the F-12 K medium with 2 mM L-glutamine, 1.5 g/L sodium bicarbonate, 100 μg/mL heparin, 30 μg/mL endothelial cell growth supplement and 10% fetal bovine serum (FBS) at 37 °C in a humidified atmosphere of 5% CO2. Cells were exposed to culture medium with 10% FBS for at least 1 day before experiments. Only 3–6 passages of cells were used in this study.
HUVEC was pretreated with different targeted compounds (TS-15 and TS-40) for 1 hour. Y27632 and 0.2% DMSO were used as the positive control and vehicle control, respectively. After drug treatment, cells were washed with pre-cold PBS and lysed on ice with RIPA lysis buffer for 30 min, followed by centrifugation at 12,500 g for 20 min at 4 °C. The supernatant was collected and protein concentration was determined using the BCA protein assay kit (Thermo Scientific Pierce). Aliquots of protein samples were boiled for 5 min at 95 °C and electrophoresed on 10% SDS-PAGE and then transferred to a polyvinylidene difluoride membrane (Bio-Rad, Hercules, CA, USA). Subsequently, the membrane was blocked with 5% (w/v) nonfat milk in TBS-T buffer for 1 hour at room temperature. The blots were incubated overnight at 4 °C with primary antibodies. After being washed with TBS-T for 20 min at room temperature, the membranes were further incubated with horseradish peroxidase-conjugated secondary antibodies for 2 hours at room temperature. Finally, protein bands were visualized using ECL Plus Western blotting detection reagents (GE Healthcare, Piscataway, NJ, USA). The membranes were then scanned on a Bio-Rad ChemiDoc imaging system and the intensity of the protein bands was analyzed using the Bio-Rad Image Lab software.
In general terms: A western blot detects proteins with antibodies after separation by electrophoresis.

The subject of another series is zebrafish embryos. The experiment in a line: Atorvastatin-induced cerebral hemorrhage in zebrafish. As to conditions: for Cerebral hemorrhage rate (%): then atorvastatin 24 hours; for hemorrhage changes compared with the disease model group: atorvastatin 24 hours. The format is in vivo. The arrangement: hemorrhage changes compared with the disease model group: dose or concentration left out as unconfirmed. On the procedure: Tg (fli1a:EGFP)y1; Tg (gata1a:dsRed)sd2 homozygous double transgenic zebrafish was used and maintained as described in our previous study. […] The animal experiments were carried out in “accordance” with the approved guidelines of the Animal Research Ethics Committee, University of Macau and approved by the Animal Research Ethics Committee, University of Macau.
Tg (fli1a:EGFP)y1; Tg (gata1a:dsRed)sd2 homozygous double transgenic zebrafish embryos at 22 hours post-fertilization (hpf) were pretreated with the targeted compounds (TS 15 and TS 40) for 2 hours. During this period, the positive control group was treated with […] Y27632 while the vehicle control group was given with 0.2% DMSO (solvent). Then, all the pretreated embryos washed with PBS for 3 times and challenged with 1 mM atorvastatin for 24 hours according to the reported protocol with small modifications. After that, the viability and cerebral hemorrhage changes were observed using a fluorescence microscope (Olympus IX81 Motorized Inverted Microscope, Japan) equipped with a digital camera (DP controller, Soft Imaging System, Olympus, Germany). The results were analyzed with Axiovision 4.2 (Soft Imaging System, Olympus, Germany) and the public-domain Image J software (Rasband WS, Image J; US National Institutes of Health, Bethesda, MD). The cerebral hemorrhage rate of each group was calculated by the number of zebrafish with cerebral hemorrhage to the total number of each group.

[2] abbreviates: ROCK1, 12.5 μM ATP, 8-point dilutions, three individual times.

T1 sequence (Q13464 whole entry): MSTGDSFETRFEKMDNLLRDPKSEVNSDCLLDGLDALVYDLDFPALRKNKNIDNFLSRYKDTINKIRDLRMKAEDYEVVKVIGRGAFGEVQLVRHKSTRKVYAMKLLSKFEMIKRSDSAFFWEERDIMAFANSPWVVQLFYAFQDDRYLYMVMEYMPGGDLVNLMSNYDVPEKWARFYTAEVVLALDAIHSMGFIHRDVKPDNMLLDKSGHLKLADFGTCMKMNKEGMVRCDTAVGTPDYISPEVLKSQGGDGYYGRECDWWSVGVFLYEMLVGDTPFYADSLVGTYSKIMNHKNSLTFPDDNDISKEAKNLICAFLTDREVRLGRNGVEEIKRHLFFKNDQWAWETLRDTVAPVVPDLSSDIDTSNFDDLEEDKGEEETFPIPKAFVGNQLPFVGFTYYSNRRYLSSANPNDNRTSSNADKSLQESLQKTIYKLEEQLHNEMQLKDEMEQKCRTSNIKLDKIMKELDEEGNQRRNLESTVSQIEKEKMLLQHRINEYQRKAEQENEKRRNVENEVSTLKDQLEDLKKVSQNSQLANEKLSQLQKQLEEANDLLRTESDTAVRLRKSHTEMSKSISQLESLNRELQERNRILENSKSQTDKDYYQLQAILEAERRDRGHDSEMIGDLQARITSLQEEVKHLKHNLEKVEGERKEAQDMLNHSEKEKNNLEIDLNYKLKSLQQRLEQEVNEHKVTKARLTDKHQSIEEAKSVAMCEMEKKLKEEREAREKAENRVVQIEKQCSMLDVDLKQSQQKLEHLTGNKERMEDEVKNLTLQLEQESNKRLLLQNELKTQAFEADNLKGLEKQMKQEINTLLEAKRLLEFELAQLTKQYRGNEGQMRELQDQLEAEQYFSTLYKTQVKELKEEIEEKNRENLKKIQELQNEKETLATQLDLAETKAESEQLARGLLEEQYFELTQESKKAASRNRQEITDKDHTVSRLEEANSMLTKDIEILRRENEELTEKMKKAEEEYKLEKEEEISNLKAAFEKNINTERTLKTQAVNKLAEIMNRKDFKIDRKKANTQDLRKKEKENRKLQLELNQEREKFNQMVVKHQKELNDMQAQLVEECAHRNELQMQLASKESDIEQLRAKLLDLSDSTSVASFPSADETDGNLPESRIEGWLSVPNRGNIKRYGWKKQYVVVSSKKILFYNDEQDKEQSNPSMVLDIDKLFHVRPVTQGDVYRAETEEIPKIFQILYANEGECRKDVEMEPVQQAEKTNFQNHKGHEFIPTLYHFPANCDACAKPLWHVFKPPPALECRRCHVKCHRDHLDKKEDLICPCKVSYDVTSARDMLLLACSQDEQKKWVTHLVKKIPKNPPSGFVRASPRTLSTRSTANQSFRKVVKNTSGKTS

In the case of `COCc1nc2cc(-c3ccnc4[nH]ccc34)ccc2o1` [TS-f25], on ROCK1 (setting [2]), the 50% inhibitory concentration (IC50) amounted to 4.42 ± 1.14 µM.

With `O=S(=O)(c1ccccc1)c1ccc(-c2ccnc3[nH]ccc23)cc1` [TS-f13], the IC50 on ROCK1 (setting [2]) was determined as 3.2 ± 1.06 µM.

As for `NCC1CCN(Cc2ccc(-c3nc(-c4ccncc4)cc(=O)[nH]3)cc2)CC1` [TS-f7], at ROCK1 (setting [2]), the half-maximal inhibitory concentration (IC50) came to 28.3 ± 0.99 µM.

`Nc1cc(-c2ccc(C3(O)CCNCC3)cc2)c2cc[nH]c2n1` [TS-28] returned an IC50 against ROCK1 (setting [2]) of 6.71 ± 1.48 µM.

In turn, `c1cc(OCCn2ccnc2)cc(-c2ccnc3[nH]ccc23)c1` [TS-f37] gave an IC50 on ROCK1 (setting [2]) of 1.82 ± 0.76 µM.

On ROCK1 (setting [2]), `OCCCNCc1cccc(-c2ccnc3[nH]ccc23)c1` [TS-f5] registered a 50% inhibitory concentration (IC50) of 1.55 ± 0.57 µM.

Take `O=C(NCCc1c[nH]cn1)c1coc(COc2cccc3cnccc23)n1` [TS-f10]: inhibition on ROCK1 (setting [2]) was half-maximal at 31.4 ± 1.63 µM (IC50).

The compound `CN(Cc1cccc(C(=O)Nc2ccc3[nH]ncc3c2)c1)Cc1cc[nH]n1` [TS-f6] came in with an IC50 on ROCK1 (setting [2]) of 12.4 ± 0.85 µM.

As for `NS(=O)(=O)c1ccc(-c2ccnc3[nH]ccc23)c(F)c1` [TS-40], the 50% inhibitory concentration (IC50) was < 1 µM and 0.15 µM on ROCK1 (setting [2]); below 0.3 µM against ROCK1 (ROCK1, value given in text). Besides, in series [1], the “phosphorylation level of cofilin (p-cofilin band, ratio to T-cofilin)” value is given as “significant inhibitory effects”. For the same compound, the “Cerebral hemorrhage rate (%)” value in the series on zebrafish embryos (6 μM pretreatment) amounted to 90.6 ± 7.4%; in the series with zebrafish embryos (20 μM pretreatment), 78.8 ± 7.1 %; with zebrafish embryos (60 μM pretreatment) it was 66.2 ± 7.2 %. The “hemorrhage changes compared with the disease model group” value (“hemorrhage changes” for short) in the series with zebrafish embryos is on record as “obviously abated”. Further, the “inhibitory rate against cerebral hemorrhage” value (shortened to “inhibitory rate”) in the series on zebrafish embryos (dose of 20 μM) came to 78.8%; with zebrafish embryos (dose of 60 μM) it was 66.2%.

On to `C[C@@H](N)[C@H]1CC[C@H](C(=O)Nc2ccncc2)CC1` [Y27632, reference compound], for which the “phosphorylation level of cofilin (p-cofilin band, ratio to T-cofilin)” value in series [1] was “reduced significantly”. Also, the “Cerebral hemorrhage rate (%)” value in the series on zebrafish embryos (10 μM pretreatment) is 74.4 ± 8.7 %. In addition, in the series on zebrafish embryos, the “hemorrhage changes” value was “obviously abated”. The “inhibitory rate” value in the series with zebrafish embryos (dose of 10 μM) was 74.4%.

The compound `Cc1nc(-c2cccc(-c3ccnc4[nH]ccc34)c2)no1` [TS-f26] gave a 50% inhibitory concentration (IC50) against ROCK1 (setting [2]) of 3.48 ± 1.65 µM.

On to `Cn1ncc2cc(-c3ccnc4[nH]ccc34)ccc21` [TS-f22], for which, at ROCK1 (setting [2]), the IC50 is < 1 µM and 0.48 µM.

`COCCNc1cc(-c2ccc(C3(O)CCNCC3)cc2)c2cc[nH]c2n1` [TS-16] came in with an IC50 against ROCK1 (setting [2]) of 9.94 ± 4.33 µM.

At ROCK1 (setting [2]), `O=c1[nH]c2ccc(-c3cc(NC4CCCC4)nc4[nH]ccc34)cc2[nH]c1=O` [TS-11] registered an IC50 of 67.2 ± 0.57 µM.

On ROCK1 (setting [2]), `CCCCNC(=O)c1ccc(-c2ccnc3[nH]ccc23)o1` [TS-f32] came in with an IC50 of 2.21 ± 0.21 µM.

`CNc1cc(-c2ccccc2OCCn2ccnc2)c2cc[nH]c2n1` [TS-27] showed an IC50 on ROCK1 (setting [2]) of 26.5 ± 1.13 µM.

As to `OC(CN1CCOCC1)c1ccc(-c2ccnc3[nH]ccc23)cc1` (stereo not shown) [TS-15], the concentration for half-maximal inhibition (IC50) at ROCK1 (setting [2]) is < 1 µM and 0.25 µM; at ROCK1 (ROCK1, value given in text), below 0.3 µM. The “phosphorylation level of cofilin (p-cofilin band, ratio to T-cofilin)” value in series [1] is reported as “significant inhibitory effects”. Also, the “Cerebral hemorrhage rate (%)” value was 79.3 ± 5.9% in the series on zebrafish embryos (6 μM pretreatment), 73.5 ± 13.0 % in the series on zebrafish embryos (20 μM pretreatment) and <60 ^b,* % in the series with zebrafish embryos (60 μM pretreatment). The “hemorrhage changes” value in the series on zebrafish embryos was “obviously abated”. The results for the “inhibitory rate” value in the series with zebrafish embryos (dose of 6 μM), in the series on zebrafish embryos (dose of 20 μM) and with zebrafish embryos (dose of 60 μM) were 79.3%, 73.5% and below 60%, respectively. The toxicity to zebrafish result with zebrafish embryos (dose of 20 μM) is given as “relatively safe”; in the series on zebrafish embryos (dose of 60 μM), “toxic”.

`CN(Cc1cc(F)ccc1O)Cc1cccc2cnccc12` [TS-f28]: the 50% inhibitory concentration (IC50) on ROCK1 (setting [2]) amounted to 23.05 ± 0.07 µM.
